Test results reported in patent publication US20220395539A1, “TRADITIONAL CHINESE MEDICINE COMPOSITION FOR TREATING PSORIASIS, PREPARATION METHOD THEREFOR AND USE THEREOF” (priority 2019, published 2022).

Test system: mice psoriasis-like skin lesion model induced by imiquimod
Test: mice psoriasis-like skin lesion model induced by imiquimod
Format: in vivo, C57BL/6 mice
Parameters: Pathological score Epidermal cell keratinization / Pathological score Dermal thickness / Pathological score Total score: scale not given here
Conditions: methotrexate 1 mg/kg
Method: II. Pharmacodynamic Experiment of the Medicine Composition of the Present Application on Mice Psoriasis-Like Skin Lesion Model Induced by Imiquimod. Researching subjects: […] (2015000562136). The mice were fed with standard diet and the animal room was kept at the temperature of 23±2° C. and the humidity of 40% to 70%. […] The medium-dosage group of 9-ingredient macules-eliminating prescription: clinical equivalent dose. The low-dosage group of 9-ingredient macules-eliminating prescription: the dosage in the low-dosage group was ¼ of that in the high-dosage group. [table] Modeling method and treatment: […] Clinical symptoms: observe any clinical symptoms of each animal at the beginning and during the experiment. Any abnormal response should be recorded. […] PASI method: photos of the skin lesions were taken every day, and the erythema, scales and infiltration thickening degree at the skin lesions were scored, and the three scores were added up to obtain the total scores. […] End of experiment: after the experiment, the animals were sacrificed by CO2 deep anesthesia, and the corresponding tissues were collected. Statistics of data: the experimental data are expressed by Mean±SD, and the data between two groups are tested by T test, P<0.05 is considered as significant difference.

[1] = Yujinyinxie tablet 0.72 g/kg, i.g. Qd
[2] = Yujinyinxie tablet 0.72 g/kg, i.g. Qd 7 days

effect on the weight compared with the model group (gavage 7 days, 9-ingredient 11.24, 5.62 and 2.81 g extract/kg): reduced the weight | BW Day l [1]: 20.29 ± 0.68 g | BW Day 8 [2]: 17.99 ± 2.71 g
SMILES: CN(Cc1cnc2nc(N)nc(N)c2n1)c1ccc(C(=O)N[C@@H](CCC(=O)O)C(=O)O)cc1 [Methotrexate, methotrexate]
Severity index Day 4 (total score of skin lesion, PASI method) [1]: 1.65 ± 0.58 | Severity index Day 5 (total score of skin lesion, PASI method) [1]: 2.20 ± 0.48 | Severity index Day 6 (total score of skin lesion, PASI method) [1]: 1.90 ± 0.39 | Severity index Day 7 (total score of skin lesion, PASI method) [1]: 3.60 ± 0.63 | Pathological score Dermal inflammatory cells infiltration degree [2]: 1.10 ± 0.32, | Pathological score Dermal thickness [2]: 1.50 ± 0.53 | Pathological score Epidermal cell keratinization [2]: 1.60 ± 0.84 | Pathological score Epidermal thickness [2]: 1.60 ± 0.52, | Pathological score Total score [2]: 5.80 ± 1.14 | Severity index Day 8 (total score of skin lesion, PASI method) [2]: 3.05 ± 1.82
